Measurements published in publication PMC10653858 (mBio, 2023).

Experiments:
[1] = test system: SET domain; assay type: binding, L. pneumophila; conditions: pH 8
[2] = test system: LegAS4 enzymes; assay type: binding, L. pneumophila strain Philadelphia
[3] = test system: LegAS4; assay type: binding, L. pneumophila strain Philadelphia; conditions: pH 7.5

Compound | SAM binding of the SET domain alone, in words [1] | SAM binding of the different proteins, in words [2] | Peptide binding to wild-type LegAS4, in words [3]
C[S+](CC[C@H](N)C(=O)[O-])C[C@H]1O[C@@H](n2cnc3c(N)ncnc32)[C@H](O)[C@@H]1O (stereo partly drawn) [SAM] | greatly decreased SAM binding | same binding capacity to SAM | 
ARTKQT-K(Biotin)-NH2 [H3 peptide (Ala1-Ala7)] |  |  | not binding the enzyme
